The structures appear in SMILES notation.

Drawing on US9694016B2 (Novartis AG, priority 2013, dated 2017), this text covers IC50 for 24 compounds.

T1 sequence (P15056 whole entry V600E): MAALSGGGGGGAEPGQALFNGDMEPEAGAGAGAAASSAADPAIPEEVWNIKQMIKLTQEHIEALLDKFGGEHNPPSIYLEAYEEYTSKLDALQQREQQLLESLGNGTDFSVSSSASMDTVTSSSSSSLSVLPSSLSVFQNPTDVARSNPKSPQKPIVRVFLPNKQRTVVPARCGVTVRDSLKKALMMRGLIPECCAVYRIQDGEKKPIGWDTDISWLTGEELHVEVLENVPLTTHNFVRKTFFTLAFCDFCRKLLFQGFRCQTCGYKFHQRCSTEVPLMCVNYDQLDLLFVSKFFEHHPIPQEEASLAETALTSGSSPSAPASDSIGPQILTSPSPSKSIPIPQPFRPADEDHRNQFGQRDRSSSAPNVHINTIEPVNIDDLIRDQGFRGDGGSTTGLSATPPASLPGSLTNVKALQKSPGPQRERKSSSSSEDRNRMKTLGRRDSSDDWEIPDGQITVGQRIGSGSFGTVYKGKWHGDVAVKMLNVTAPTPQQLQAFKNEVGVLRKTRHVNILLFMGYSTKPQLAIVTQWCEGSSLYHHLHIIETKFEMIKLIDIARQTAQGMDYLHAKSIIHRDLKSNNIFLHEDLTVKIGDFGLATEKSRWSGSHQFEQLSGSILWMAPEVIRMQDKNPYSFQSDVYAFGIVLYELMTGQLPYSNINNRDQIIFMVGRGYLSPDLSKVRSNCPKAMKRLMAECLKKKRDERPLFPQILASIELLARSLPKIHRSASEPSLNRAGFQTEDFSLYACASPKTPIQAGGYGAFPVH

The target of one assay is C-Raf TR (truncated C-Raf protein, Δ1-324 deletion mutant) (Homo sapiens (Human), UniProt P04049).
Test: not given
In kind it is biochemical. As to conditions: truncated C-Raf approximately 4 nM, ATP 1 uM, 60 min pre-incubation, 1 hour reaction. The protocol:
biotinylated Mek, kinase dead
biotinylated Mek, Kinase dead approximately 10 nM
`Cc1ccc(NC(=O)c2cccc(C(F)(F)F)c2)cc1-c1csc(N2CCOCC2)n1` [Example 199, N-(4-methyl-3-(2-morpholinothiazol-4-yl)phenyl)-3-(trifluoromethyl)benzamide] had an IC50 of 1.29 nM.
Compound `Cc1ccc(NC(=O)c2cccc(C(F)(F)F)c2)cc1-c1cncc(N2CCOCC2)n1` [Example 118, N-(4-methyl-3-(6-morpholinopyrazin-2-yl)phenyl)-3-(trifluoromethyl)benzamide] gave an IC50 of 0.308 nM.
With `Cc1ccc(NC(=O)c2cccc(C(F)(F)F)c2)cc1-c1cn(C)c(=O)c(N2CCOCC2)n1` [Example 119, N-(4-methyl-3-(4-methyl-6-morpholino-5-oxo-4,5-dihydropyrazin-2-yl)phenyl)-3-(trifluoromethyl)benzamide], the IC50 stood at 0.27 nM.
The same measure, in the same setting: next, `Cc1ccc(C(=O)Nc2cccc(C(F)(F)F)c2)cc1-c1nc(N2CCOCC2)cc(N2CCOCC2)n1` [Example 14, 3-(4,6-dimorpholinopyrimidin-2-yl)-4-methyl-N-(3-(trifluoromethyl)phenyl)benzamide]: 0.803 nM; `Cc1ccc(C(=O)Nc2cccc(C(F)(F)F)c2)cc1-c1ccnc(N2CCOCC2)c1` [Example 63, 4-Methyl-3-(2-morpholinopyridin-4-yl)-N-(3-(trifluoromethyl)phenyl)benzamide]: 0.508 nM.

Another assay concerns the target T1, b-Raf (V600E) (Homo sapiens (Human), UniProt P15056, V600E). The assay can be described thus: biochemical.
Details: not given
Consider `Cc1ccc(NC(=O)c2cccc(C(F)(F)F)c2)cc1-c1nc2c(c(N3CCOCC3)n1)CCNC2` [Example 834, N-(4-methyl-3-(4-morpholino-5,6,7,8-tetrahydropyrido[3,4-d]pyrimidin-2-yl)phenyl)-3-(trifluoromethyl)benzamide], for which the IC50 was found to be 0.6 nM.
The compound `CNCc1ccc(C(=O)Nc2cnc(C)c(-c3cc(N4CCOCC4)c4nccn4c3)c2)cc1C(F)(F)F` [Example 885, N-(6-methyl-5-(8-morpholinoimidazo[1,2-a]pyridin-6-yl)pyridin-3-yl)-4-((methylamino)methyl)-3-(trifluoromethyl)benzamide] showed an IC50 of 12.3 nM.
Same read-out and setting: next, `Cc1ccc(NC(=O)c2cc(C3CC3)on2)cc1-c1cc2[nH]cnc2c(N2CCOCC2)n1` [Example 820, 5-cyclopropyl-N-(4-methyl-3-(4-morpholino-1H-imidazo[4,5-c]pyridin-6-yl)phenyl)isoxazole-3-carboxamide]: 1.4 nM; `Cc1cc(C(=O)Nc2ccc(C)c(-c3cc4[nH]cnc4c(N4CCOCC4)n3)c2)n(C)n1` [Example 817, 1,3-dimethyl-N-(4-methyl-3-(4-morpholino-1H-imidazo[4,5-c]pyridin-6-yl)phenyl)-1H-pyrazole-5-carboxamide]: 200 nM.
For the compound `Cc1ccc(NC(=O)c2cc(C3CC3)nn2C)cc1-c1cc2[nH]cnc2c(N2CCOCC2)n1` [Example 818, 3-cyclopropyl-1-methyl-N-(4-methyl-3-(4-morpholino-1H-imidazo[4,5-c]pyridin-6-yl)phenyl)-1H-pyrazole-5-carboxamide], the IC50 was determined as 18.4 nM.
Same read-out and setting: next, `CCOc1ncc(-c2cc(C(=O)Nc3cccc(C(C)(C)O)c3)ccc2C)cc1N1CCOCC1` [Example 236, 3-(6-ethoxy-5-morpholinopyridin-3-yl)-N-(3-(2-hydroxypropan-2-yl)phenyl)-4-methylbenzamide]: 1.6 nM.
As for `Cc1ncc(NC(=O)c2cccc(C(F)(F)F)c2)cc1-c1cnc(O[C@H](C)CO)c(N2CCOCC2)c1` [Example 1021, (R)—N-(6′-((1-hydroxypropan-2-yl)oxy)-2-methyl-5′-morpholino-[3,3′-bipyridin]-5-yl)-3-(trifluoromethyl)benzamide], the IC50 stood at 2.6 nM.
As to `Cc1ccc(C(=O)Nc2ccc(CN)c(C(F)(F)F)c2)cc1-c1cc(N2CCOCC2)c(=O)n(C)c1` [Example 467, N-(4-(aminomethyl)-3-(trifluoromethyl)phenyl)-4-methyl-3-(1-methyl-5-morpholino-6-oxo-1,6-dihydropyridin-3-yl)benzamide], the IC50 amounted to 12.1 nM.
Same read-out and setting: next, `CCNc1nc(-c2cc(C(=O)Nc3cccc(C(F)(F)F)c3)ccc2C)cc(N2CCOCC2)n1` [Example 710, 3-(2-(ethylamino)-6-morpholinopyrimidin-4-yl)-4-methyl-N-(3-(trifluoromethyl)phenyl)benzamide]: 4 nM; `CCOc1nnc(-c2cc(NC(=O)c3cccc(S(C)(=O)=O)c3)ccc2C)cc1N1CCOCC1` [Example 559, N-(3-(6-ethoxy-5-morpholinopyridazin-3-yl)-4-methylphenyl)-3-(methylsulfonyl)benzamide]: 0.9 nM; `Cc1ccc(NC(=O)c2cc(CO)cc(C(F)(F)F)c2)cc1-c1cc(N2CCOCC2)c(=O)n(C)c1` [Example 469, 3-(hydroxymethyl)-N-(4-methyl-3-(1-methyl-5-morpholino-6-oxo-1,6-dihydropyridin-3-yl)phenyl)-5-(trifluoromethyl)benzamide]: 3.1 nM.
In turn, `Cc1ccc(NC(=O)c2cn(C)nc2C)cc1-c1cc2[nH]cnc2c(N2CCOCC2)n1` [Example 815, 1,3-dimethyl-N-(4-methyl-3-(4-morpholino-1H-imidazo[4,5-c]pyridin-6-yl)phenyl)-1H-pyrazole-4-carboxamide] displayed an IC50 of 100 nM.
In turn, `Cc1ccc(NC(=O)c2cn(C(C)C)nc2C)cc1-c1cc2[nH]cnc2c(N2CCOCC2)n1` [Example 816, 1-isopropyl-3-methyl-N-(4-methyl-3-(4-morpholino-1H-imidazo[4,5-c]pyridin-6-yl)phenyl)-1H-pyrazole-4-carboxamide] returned an IC50 of 17.4 nM.
Turning to `Cc1ncc(NC(=O)c2cccc(C(F)(F)F)c2)cc1-c1cc(N2CCOCC2)nc(NC[C@@H](C)O)n1` [Example 743, (R)—N-(5-(2-((2-hydroxypropyl)amino)-6-morpholinopyrimidin-4-yl)-6-methylpyridin-3-yl)-3-(trifluoromethyl)benzamide], the IC50 was 3.7 nM.
The same measure, in the same setting: next, `Cc1ccc(NC(=O)c2cccc(-c3nnco3)c2)cc1-c1cc2[nH]cnc2c(N2CCOCC2)n1` [Example 822, N-(4-methyl-3-(4-morpholino-1H-imidazo[4,5-c]pyridin-6-yl)phenyl)-3-(1,3,4-oxadiazol-2-yl)benzamide]: 7.7 nM; `Cc1ccc(NC(=O)c2ccnc(C(C)(F)F)c2)cc1-c1ccnc(N2CCOCC2)c1` [Example 1137, 2-(1,1-difluoroethyl)-N-(4-methyl-3-(2-morpholinopyridin-4-yl)phenyl)isonicotinamide]: 0.62 nM; `CCn1cc(C(=O)Nc2ccc(C)c(-c3cc4[nH]cnc4c(N4CCOCC4)n3)c2)c(C)n1` [Example 814, 1-ethyl-3-methyl-N-(4-methyl-3-(4-morpholino-1H-imidazo[4,5-c]pyridin-6-yl)phenyl)-1H-pyrazole-4-carboxamide]: 32.1 nM.
`Cc1ccc(NC(=O)c2ccnc(C(C)(C)C#N)c2)cc1-c1cc(N2CCOCC2)c(OC(C)C)nn1` [Example 596, 2-(2-cyanopropan-2-yl)-N-(3-(6-isopropoxy-5-morpholinopyridazin-3-yl)-4-methylphenyl)isonicotinamide] showed an IC50 of 1.3 nM.
Same read-out and setting: next, `Cc1ncc(NC(=O)c2cccc(C(F)(F)F)c2)cc1-c1cnc(OC[C@H](C)O)c(N2CCOCC2)c1` [Example 1022, (S)—N-(6′-(2-hydroxypropoxy)-2-methyl-5′-morpholino-[3,3′-bipyridin]-5-yl)-3-(trifluoromethyl)benzamide]: 1.49 nM.

The next assay addresses T1, b-Raf (V600E).
Test: not given
As to conditions: read-out: b-Raf IC-50; Table 2; AlphaScreen, 3 hours reaction. On the technique in general: Bead proximity is the source of the signal in Alpha formats.
`Cc1ccc(NC(=O)c2cccc(C(F)(F)F)c2)cc1-c1csc(N2CCOCC2)n1` [Example 199, N-(4-methyl-3-(2-morpholinothiazol-4-yl)phenyl)-3-(trifluoromethyl)benzamide]: the IC50 amounted to 3.6 nM.
On the same count and under the same terms, next, `Cc1ccc(NC(=O)c2cccc(C(F)(F)F)c2)cc1-c1cncc(N2CCOCC2)n1` [Example 118, N-(4-methyl-3-(6-morpholinopyrazin-2-yl)phenyl)-3-(trifluoromethyl)benzamide]: 0.7 nM.
Take `Cc1ccc(NC(=O)c2cccc(C(F)(F)F)c2)cc1-c1cn(C)c(=O)c(N2CCOCC2)n1` [Example 119, N-(4-methyl-3-(4-methyl-6-morpholino-5-oxo-4,5-dihydropyrazin-2-yl)phenyl)-3-(trifluoromethyl)benzamide]: the IC50 turned out to be 0.4 nM.
With `Cc1ccc(C(=O)Nc2cccc(C(F)(F)F)c2)cc1-c1ccnc(N2CCOCC2)c1` [Example 63, 4-Methyl-3-(2-morpholinopyridin-4-yl)-N-(3-(trifluoromethyl)phenyl)benzamide], the IC50 turned out to be 2.1 nM.
